Experimental data as given in patent EP3334759B1, “LACTOFERRIN FRAGMENT FOR THE USE AS ANTIBACTERIAL AND ANTIVIRAL AGENT” (Farmagens Health Care Srl, priority 2015, dated 2019).
Peptide text beside a SMILES is read from it.

Legend:
Vero cell line = type: cell-based, Cercopithecus aethiops
Protocol: MTT assay: cells of Vero cell line (ATCC CRL-1586™ kidney epithelial cells of Cercopithecus aethiops) were cultivated at the appropriate growth conditions as recommended by the supplier in 96-well plates at a concentration of 2 × 10^4 cells/well and treated with the peptides according to the invention at different concentrations diluted in growth medium (1, 5, 10, 20, 50, 100, 250 mM) for 3, 10 and 24 hours. Subsequently, the medium was aspirated and the cells incubated at 37 °C for 3 hours with 10 µl of MTT (bromide of 3-(4,5-dimethylthiazol-2-yl)-2,5-diphenyltetrazolium), a vital dye able to enter the mitochondria and be metabolized by succinate dehydrogenase complex to formazan salts, determining a violet coloration in those cells. Afterward, the supernatant was discharged and isopropanol (100 uL) was added to each well to dissolve the produced salts. The reaction was allowed to proceed by incubation at room temperature in tilting agitation for 20 minutes, then spectrophotometric reading was performed at 570nm to assess cell viability in terms of proliferative inhibition and cell growth.

Human red blood cells = type: cell-based
Protocol: Human red blood cells from healthy donors have been isolated and used to performed the hemolytic assay. The peptide fragments of lactoferrin of SEQ ID No. 1 and SEQ ID No. 2 at different concentrations (1, 5, 10, 20, 50, 100, 250 mM) were added to the suspension of erythrocytes to a final volume of 100 µl. Samples were incubated under stirring at 37 °C for 60 min. The hemoglobin release was monitored by measuring the absorbance (Abs) of the supernatant at 540 nm. As negative control, i.e. zero hemolysis (blank), red cells resuspended in PBS were used, whereas completely lysed erythrocytes were used as a positive control for 100% hemolysis. The percentage of hemolysis was calculated using the following equation: % Hemolysis = [(SampleAbs−negativecontrolAbs)/(positivecontrolAbs−negativecontrolAbs)] × 100. [formula]

SMILES | toxicity, measured as a function of cellular integrity (Vero cell line) [%] | toxicity towards the erythrocytes (hemolysis) (Human red blood cells)
CC(C)C[C@H](NC(=O)[C@H](CCC(N)=O)NC(=O)[C@H](Cc1ccccc1)NC(=O)[C@H](CO)NC(=O)[C@H](CCCNC(=N)N)NC(=O)[C@H](CO)NC(=O)[C@H](CCCCN)NC(=O)[C@H](CC(N)=O)NC(=O)[C@H](CCCCN)NC(=O)CNC(=O)[C@H](Cc1ccccc1)NC(=O)[C@@H](N)CCCCN)C(=O)N[C@@H](Cc1ccccc1)C(=O)NCC(=O)N[C@@H](CO)C(=O)N1CCC[C@H]1C(=O)N1CCC[C@H]1C(=O)NCC(=O)N[C@@H](CCC(N)=O)C(=O)N[C@@H](CCCNC(=N)N)C(=O)N[C@@H](CC(=O)O)C(=O)N[C@@H](CC(C)C)C(=O)N[C@@H](CC(C)C)C(=O)N[C@@H](Cc1ccccc1)C(=O)N[C@@H](CCCCN)C(=O)N[C@@H](CC(=O)O)C(=O)O [SEQ ID No. 1] (H-KFGKNKSRSFQLFGSPPGQRDLLFKD-OH) | ≤ 20 | not toxic
CC(C)C[C@H](NC(=O)CNC(=O)[C@H](CS)NC(=O)[C@H](CCCCN)NC(=O)CNC(=O)[C@H](C)NC(=O)[C@@H](NC(=O)[C@@H](N)Cc1ccc(O)cc1)[C@@H](C)O)C(=O)N[C@H](C(=O)N1CCC[C@H]1C(=O)N[C@H](C(=O)N[C@@H](CC(C)C)C(=O)N[C@@H](C)C(=O)N[C@@H](CCC(=O)O)C(=O)N[C@@H](CC(N)=O)C(=O)N[C@@H](CCCNC(=N)N)C(=O)N[C@@H](CCCCN)C(=O)N[C@H](C(=O)N[C@@H](CO)C(=O)N[C@@H](CCCCN)C(=O)N[C@@H](Cc1ccc(O)cc1)C(=O)N[C@@H](CO)C(=O)N[C@@H](CO)C(=O)N[C@@H](CC(C)C)C(=O)N[C@@H](CC(=O)O)C(=O)N[C@@H](CS)C(=O)N[C@H](C(=O)N[C@@H](CC(C)C)C(=O)N[C@@H](CCCNC(=N)N)C(=O)N1CCC[C@H]1C(=O)O)C(C)C)[C@@H](C)O)C(C)C)C(C)C [SEQ ID No. 2] (H-YTAGKCGLVPVLAENRKTSKYSSLDCVLRP-OH) | ≤ 20 | not toxic
